From the Deep4Chem optical property database
Values joined by “and” are separate entries in the source; they are usually repeats but may differ in a detail not shown here. Equal values may be shown once. Each block holds one compound with its values, some of them ahead of it.

Assay: solvent given as SMILES

SMILES: CCn1c2ccccc2c2cc(-c3cc(-c4ccc5c(c4)c4ccccc4n5CC)nc(-c4ccccc4)n3)ccc21
emission maximum (in C1CCOC1): 391 nm
emission maximum (in CCOC(C)=O): 389 nm
emission maximum (in CN(C)C=O): 415 nm
emission maximum (in Cc1ccccc1): 380 nm
emission maximum (in ClCCl): 405 nm

SMILES: CC1(C)C(/C=C/C=C/C=C/C=C2\N(CCCCS(=O)(=O)[O-])c3ccc4ccccc4c3C2(C)C)=[N+](CCCCS(=O)(=O)[O-])c2ccc3ccccc3c21
emission maximum (in O): 820 nm

SMILES: CCOC(=O)CN1C(=O)C2=C(c3ccc(C#N)cc3)N(CC(=O)OCC)C(=O)C2=C1c1ccc(C#N)cc1
emission maximum (in CC#N): 549 nm
emission maximum (in CS(C)=O): 557 nm
emission maximum (in Cc1ccccc1): 558 nm

SMILES: Cc1cc(C)c(B(c2cc3c4c(c(B(c5c(C)cc(C)cc5C)c5c(C)cc(C)cc5C)cc5c4c2CCC5)CCC3)c2c(C)cc(C)cc2C)c(C)c1
emission maximum (in C1CCOC1): 464.54 nm
emission maximum (in CC#N): 465.9 nm
emission maximum (in CCCCCC): 456 nm

SMILES: CC1(C)c2ccccc2N(c2ccc(-c3ccc(C#N)nc3)cc2)c2ccccc21
emission maximum (in Cc1ccccc1): 488 nm
emission maximum (in N#Cc1ccc2c(c1)c1ccccc1n2-c1cccc(-n2c3ccccc3c3ccccc32)c1): 490 nm

SMILES: CCCC(=O)c1c2c(c(C(=O)CCC)c3c1OC(CC(=O)OC)(C(=O)O)O3)OCO2
emission maximum (in CC#N): 542 nm
emission maximum (in CCO): 603 nm
emission maximum (in CO): 614 nm
emission maximum (in ClCCl): 530 nm
emission maximum (in O): 637 nm

SMILES: CCCCCC(=O)c1c2c(c(C(=O)CCCCC)c3c1OC1(CCCC1)O3)OC1(CCCC1)O2
emission maximum (in CC#N): 561 nm
emission maximum (in CCCCCC): 525 nm
emission maximum (in CCO): 596 nm
emission maximum (in CO): 611 nm
emission maximum (in ClCCl): 561 nm

SMILES: Cc1nc2cccc(-c3nc4ccccc4[nH]3)c2c(=O)[nH]1
emission maximum (in CN(C)C=O): 441 nm

SMILES: COc1cc2c(cc1OC)C1=C[C@H](c3ccc(Cl)cc3)C3(C(C#N)=C(C#N)N1CC2)c1cc(Cl)ccc1-c1ccc(Cl)cc13
emission maximum (in ClCCl): 406 nm

SMILES: CN(C)c1nc(N)nc2c1nc(C#N)n2Cc1ccccc1
emission maximum (in C1COCCO1): 373 nm
emission maximum (in CC#N): 378 nm
emission maximum (in CO): 389 nm
emission maximum (in ClCCl): 375 nm

SMILES: CN(C)c1ccc(/C=C/c2nc3ccc(N(C)C)cc3oc2=O)cc1
emission maximum (in C1CCCCC1): 521 nm
emission maximum (in C1COCCO1): 581 nm
emission maximum (in CC#N): 650 nm
emission maximum (in CC(C)=O): 626 nm
emission maximum (in CC(O)CO): 649.5 nm
emission maximum (in CCCCCCC): 519 nm
emission maximum (in CCO): 666 nm
emission maximum (in CCOC(C)=O): 587 nm
emission maximum (in CN(C)C=O): 650 nm
emission maximum (in CS(C)=O): 666 nm
emission maximum (in Cc1ccccc1): 567 nm
emission maximum (in ClC(Cl)Cl): 627 nm
emission maximum (in ClCCl): 619 nm
emission maximum (in OCC(O)CO): 659 nm

SMILES: CCCCCCOc1cc(C=O)c(OCCCCCC)cc1C=O
emission maximum (in ClCCl): 467 nm

SMILES: Oc1cccc2ccccc12
emission maximum (in C1CCCCC1): 344.23 nm

SMILES: CC/[NH+]=c1\cc2oc3cc(NCCN)c4ccccc4c3nc-2cc1C
emission maximum (in CCO): 647 nm
emission maximum (in O): 647 nm

SMILES: CC1=[N+]2C(=C(c3c4ccccc4cc4ccccc34)c3ccc(C)n3[B-]2(F)F)C=C1
emission maximum (in C1CCOC1): 528 nm
emission maximum (in CC#N): 524 nm
emission maximum (in CCCCCC): 524 nm and 528 nm
emission maximum (in CCO): 524 nm
emission maximum (in CN(C)C=O): 531 nm
emission maximum (in CO): 527 nm
emission maximum (in CS(C)=O): 529 nm
emission maximum (in Cc1ccccc1): 530 nm
emission maximum (in ClC(Cl)Cl): 526 nm
emission maximum (in ClCCl): 528 nm

SMILES: O=C(O)CC[N+]1=c2cc3c(cc2CCC1)=Cc1c(c2cc4c5c(c2oc1=O)CCCN5CCC4)O3
emission maximum (in CC#N): 683 nm
emission maximum (in CO): 679 nm
emission maximum (in ClCCl): 675 nm
emission maximum (in O): 684 nm

SMILES: Cc1ccc([B-]2(c3ccc(C)cc3)n3nc(C(F)(F)F)cc3-c3c4ccccc4cc[n+]32)cc1
emission maximum (in C1CCCCC1): 407 nm
emission maximum (in Cc1ccccc1): 407 nm
emission maximum (in ClCCl): 407 nm

SMILES: N#Cc1ccc(-c2ccc(C3=CCCCC3)s2)s1
emission maximum (in C1CCOC1): 441 nm
emission maximum (in CC#N): 448 nm
emission maximum (in CCCCCC): 427 nm
emission maximum (in CCO): 436 nm
emission maximum (in OCCOCCO): 449 nm
emission maximum (in c1ccncc1): 448 nm

SMILES: CCn1c2ccccc2c2cc(C#Cc3cc(C#Cc4ccc5c(c4)c4ccccc4n5CC)nc(S(C)(=O)=O)n3)ccc21
emission maximum (in C1CCOC1): 496 nm
emission maximum (in CCOC(C)=O): 491 nm
emission maximum (in CN(C)C=O): 550 nm
emission maximum (in Cc1ccccc1): 447 nm
emission maximum (in ClCCl): 510 nm

SMILES: CN(C)c1ccc(-c2nc(C#N)c(C#N)n2C)cc1
emission maximum (in C1CCCCC1): 375 nm
emission maximum (in CC#N): 519 nm
emission maximum (in CO): 427 nm
emission maximum (in ClC(Cl)Cl): 437 nm

SMILES: O=c1[nH]c2ccccc2[nH]1
emission maximum (in C1CCOC1): 315 nm
emission maximum (in CC#N): 313.01 nm
emission maximum (in CC(C)=O): 307 nm
emission maximum (in CCCCCCC): 297 nm
emission maximum (in CCCCCl): 302 nm
emission maximum (in CCCCO): 311 nm
emission maximum (in CCCO): 310 nm
emission maximum (in CCCOCCC): 310 nm
emission maximum (in CCO): 310 nm

SMILES: c1cc2cc(c1)c1ccc3ccc4ccc(cc4c3c1)c1ccc3ccc4ccc(cc4c3c1)c1cccc2c1
emission maximum (in Cc1ccccc1): 414 nm

SMILES: c1ccc(-c2nnc(-c3ccccc3)n2-c2ccc(N3c4ccccc4N(c4ccccc4)c4ccccc43)cc2)cc1
emission maximum (in Cc1ccccc1): 495 nm
emission maximum (in c1cc(-n2c3ccccc3c3ccccc32)cc(-n2c3ccccc3c3ccccc32)c1): 474 nm

SMILES: CC(=O)c1c(N[C@@H](CC(C)C)C(=O)O)c2ccc(N(C)C)cc2oc1=O
emission maximum (in ClCCl): 446 nm

SMILES: CC(C)(C)c1ccc2c(c1)c1cc(C(C)(C)C)ccc1n2-c1ccc(S(=O)(=O)c2ccc(-n3c4ccc(C(C)(C)C)cc4c4cc(C(C)(C)C)ccc43)cn2)nc1
emission maximum (in Cc1ccccc1): 444.37 nm
emission maximum (in O=P(c1ccccc1)(c1ccccc1)c1ccc2sc3cccc(P(=O)(c4ccccc4)c4ccccc4)c3c2c1): 444 nm

SMILES: Cc1cccc(C2=Cc3ccc4ccccc4[n+]3[B-](F)(F)O2)c1
emission maximum (in ClC(Cl)Cl): 440 nm

SMILES: CCN(CC)c1ccc(-n2cccc2)cc1
emission maximum (in CC#N): 337 nm
emission maximum (in CCCCCC): 326 nm

SMILES: CN(C)c1ccc2c(c1)[Si](C)(C)C1=CC(=[N+](C)C)C=CC1=C2C#Cc1ccccc1
emission maximum (in CO): 738 nm
emission maximum (in O): 736 nm

SMILES: CCCCCCCCCCCCN1C(=O)c2c(c3ccc4cc(-c5ccc(C#N)cc5)c(OC)cc4c3c3c2ccc2cc(-c4ccc(C#N)cc4)c(OC)cc23)C1=O
emission maximum (in ClCCl): 520 nm

SMILES: CCCCCCCCc1ccc(-c2c3cc(-c4cc(CCCCCCCC)c(-c5ccc(-c6sc(/C=C7\SC(=S)N(CC)C7=O)cc6CCCCCCCC)s5)s4)sc3c(-c3ccc(CCCCCCCC)s3)c3cc(-c4cc(CCCCCCCC)c(-c5ccc(-c6sc(/C=C7\SC(=S)N(CC)C7=O)cc6CCCCCCCC)s5)s4)sc23)s1
emission maximum (in ClC(Cl)Cl): 670 nm

SMILES: O=C(O)C1=C/C(=C/C=[N+]2/c3cc(O)c(C[C@@H]4O[C@H](CO)[C@@H](O)C(O)[C@H]4O)cc3C[C@H]2C(=O)O)C[C@H](C(=O)O)N1 (some centres undefined)
emission maximum (in CO): 611 nm
emission maximum (in O): 641 nm
emission maximum (in OCCO): 608 nm
emission maximum (in [2H]O[2H]): 641 nm

SMILES: CCCCCn1c2ccc(S(=O)(=O)O)cc2c(=O)c2cc(S(=O)(=O)O)ccc21
emission maximum (in CS(C)=O): 421 nm
emission maximum (in O): 431 nm

The remaining lines, values ahead:

emission maximum (in ClC(Cl)Cl): 729 nm
SMILES: Cc1ccc(/C2=c3\cc/c(o3)=C(\c3ccc(C)cc3)c3ccc([nH]3)-c3ccc4n3[B-](F)(F)[N+]3=C(C=CC3=C4c3ccc[nH]3)c3ccc2[nH]3)cc1

emission maximum (in ClCCl): 426 nm
SMILES: c1cncc(-c2ccc(-c3c4ccccc4c(-c4ccc(-c5cccnc5)cc4)c4ccccc34)cc2)c1

emission maximum (in ClCCl): 538 nm
SMILES: C(#Cc1cccc2nsnc12)c1ccc(-n2c3ccccc3c3ccccc32)cc1

emission maximum (in CCO): 445 nm
SMILES: Cc1ccc(C(=O)OCc2ccc3c4cccc5cccc(c6cccc2c63)c54)cc1

emission maximum (in C1CCOC1): 510 nm
SMILES: COc1ccc(C(=Cc2ccc(/C=C(\C#N)c3ccccc3)cc2)c2ccc(OC)cc2)cc1

emission maximum (in ClCCl): 510 nm
SMILES: Cn1cc(-c2nc3ccccc3nc2C#Cc2ccccc2)c2ccccc21

emission maximum (in C1CCOC1): 444 nm
SMILES: C1=Cc2ccccc2C(=Cc2ccc(C=C3c4ccccc4-c4ccccc43)cc2)c2ccccc21

emission maximum (in CCO): 642 nm
emission maximum (in ClC(Cl)Cl): 640 nm
emission maximum (in O): 652 nm
SMILES: CCOC(=O)c1ccccc1-c1c2ccc(=[N+](CC)CC)cc-2oc2c1c(=O)oc1cc(N(CC)CC)ccc12

emission maximum (in C1CCCCC1): 333.89 nm
SMILES: Cc1ccc(-c2ccccc2)cc1

emission maximum (in C1CCCCC1): 309 nm
SMILES: CCCC1(CCC)c2ccccc2-c2ccccc21

emission maximum (in ClC(Cl)Cl): 702 nm
SMILES: CCOC(=O)/C(C)=C/C1=C(c2ccc(C)cc2)C2=Nc3c(-c4ccc(C)cc4)c(Br)c(-c4ccc(C)cc4)n3[B-](F)(F)[N+]2=C1c1ccc(C)cc1

emission maximum (in ClCCl): 426 nm
SMILES: CC(C)(C)c1ccc(-c2nc3c4ccccc4c4ccccc4c3n2-c2ccc(-c3ccc(N(c4ccccc4)c4ccccc4)cc3)cc2)cc1

emission maximum (in C1CCCCC1): 463 nm
emission maximum (in CC#N): 507 nm
emission maximum (in CCO): 553 nm
emission maximum (in c1ccccc1): 485 nm
SMILES: O=C1c2ccccc2-c2ccccc21

emission maximum (in ClC(Cl)Cl): 705 nm
SMILES: COc1ccc(N(c2ccc(OC)cc2)c2ccc(-c3ccc(-c4ccc(-c5cccs5)c5nsnc45)s3)cc2)cc1

emission maximum (in ClC(Cl)Cl): 588 nm
SMILES: N#Cc1nc(N(Cc2ccccc2)Cc2ccccc2)c(C#N)nc1N(Cc1ccccc1)Cc1ccccc1

emission maximum (in C1CCOC1): 450.74 nm
SMILES: CC(C)(C)c1ccc(-c2nc(-c3ccc(C(C)(C)C)cc3)nc(-c3ccc(-n4c5ccccc5c5c6oc7ccccc7c6ccc54)c(C#N)c3)n2)cc1

emission maximum (in C1CCOC1): 418 nm
emission maximum (in C1COCCO1): 417 nm
emission maximum (in CC#N): 417 nm
emission maximum (in CC(C)O): 423 nm
emission maximum (in CCO): 427 nm
emission maximum (in CCOC(C)=O): 416 nm
emission maximum (in CN(C)C=O): 422 nm
emission maximum (in CO): 431 nm
emission maximum (in CS(C)=O): 424 nm
emission maximum (in O): 448 nm
SMILES: NS(=O)(=O)c1ccc(N2N=C(c3ccc(O)cc3)CC2c2ccc(Cl)cc2)cc1 (centres undefined)
